Measurements as given in patent publication US20240327364A1, “THERAPEUTIC TARGETING OF GPR68 TO INDUCE FERROPTOSIS” (University Of Maryland, Baltimore, priority 2023, published 2024).

What was measured:
CCR2B = target: T1, CCR2B (Homo sapiens, UniProt P41597); experiment: GPCR Profiler; format: cell-based
T1 construct: host or cells: Chem-1 cells with Gα15

GLP-1 = target: T2, GLP-1 (Homo sapiens, UniProt P43220); experiment: GPCR Profiler; format: cell-based
T2 construct: host or cells: Chem-1 cells expressing Gα15
T2 sequence (P43220 24-463): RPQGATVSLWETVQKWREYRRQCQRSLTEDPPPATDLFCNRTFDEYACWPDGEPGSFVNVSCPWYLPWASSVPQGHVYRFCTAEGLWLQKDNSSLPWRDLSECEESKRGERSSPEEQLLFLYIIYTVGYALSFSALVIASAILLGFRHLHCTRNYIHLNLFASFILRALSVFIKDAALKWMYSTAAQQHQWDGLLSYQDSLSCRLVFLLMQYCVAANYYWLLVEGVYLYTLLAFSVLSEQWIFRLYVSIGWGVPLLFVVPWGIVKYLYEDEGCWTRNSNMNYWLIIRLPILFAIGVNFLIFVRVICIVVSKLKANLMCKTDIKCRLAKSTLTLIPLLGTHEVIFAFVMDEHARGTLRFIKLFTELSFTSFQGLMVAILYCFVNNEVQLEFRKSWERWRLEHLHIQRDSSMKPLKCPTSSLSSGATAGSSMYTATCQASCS

FRK = target: T3, FRK (Homo sapiens, UniProt P42685); experiment: KinomeScan; format: binding; settings: read-out: % Control
T3 construct: purchased DiscoveRx (Fremont, CA)
T3 sequence (P42685 whole entry): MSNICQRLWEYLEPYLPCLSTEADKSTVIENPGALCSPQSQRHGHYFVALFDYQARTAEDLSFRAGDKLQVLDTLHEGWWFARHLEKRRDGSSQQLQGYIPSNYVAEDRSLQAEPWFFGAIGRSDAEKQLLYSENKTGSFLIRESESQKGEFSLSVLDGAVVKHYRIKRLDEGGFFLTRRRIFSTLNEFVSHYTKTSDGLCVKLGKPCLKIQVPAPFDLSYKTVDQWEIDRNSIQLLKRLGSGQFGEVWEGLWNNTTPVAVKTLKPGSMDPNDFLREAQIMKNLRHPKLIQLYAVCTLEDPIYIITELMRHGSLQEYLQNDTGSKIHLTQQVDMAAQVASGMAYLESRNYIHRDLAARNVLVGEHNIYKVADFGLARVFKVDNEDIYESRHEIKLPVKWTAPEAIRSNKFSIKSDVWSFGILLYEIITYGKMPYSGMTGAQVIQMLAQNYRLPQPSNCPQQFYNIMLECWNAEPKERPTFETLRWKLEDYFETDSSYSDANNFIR

S1P3 = target: T4, S1P3 (Homo sapiens, UniProt Q99500); experiment: GPCR Profiler; format: cell-based
T4 construct: host or cells: Chem-1 cells with Gα15
T4 sequence (Q99500 whole entry, species assumed): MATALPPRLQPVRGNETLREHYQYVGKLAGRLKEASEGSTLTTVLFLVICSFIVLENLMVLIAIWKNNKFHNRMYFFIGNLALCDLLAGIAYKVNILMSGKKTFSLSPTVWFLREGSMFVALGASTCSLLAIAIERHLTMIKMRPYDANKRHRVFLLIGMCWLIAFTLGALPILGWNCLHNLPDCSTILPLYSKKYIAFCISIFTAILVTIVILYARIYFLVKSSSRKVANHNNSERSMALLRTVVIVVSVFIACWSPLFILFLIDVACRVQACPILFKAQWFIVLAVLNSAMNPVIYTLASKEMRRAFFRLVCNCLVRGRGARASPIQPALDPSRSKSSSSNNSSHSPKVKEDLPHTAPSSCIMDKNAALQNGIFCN

ZAK = target: T5, ZAK (Homo sapiens, UniProt Q9NYL2); experiment: KinomeScan; format: binding; settings: read-out: % Control
T5 construct: purchased DiscoveRx

TSSK1B = target: T6, TSSK1B (Homo sapiens, UniProt Q9BXA7); experiment: KinomeScan; format: binding; settings: read-out: % Control
T6 construct: purchased DiscoveRx (Fremont, CA)
T6 sequence (Q9BXA7 whole entry): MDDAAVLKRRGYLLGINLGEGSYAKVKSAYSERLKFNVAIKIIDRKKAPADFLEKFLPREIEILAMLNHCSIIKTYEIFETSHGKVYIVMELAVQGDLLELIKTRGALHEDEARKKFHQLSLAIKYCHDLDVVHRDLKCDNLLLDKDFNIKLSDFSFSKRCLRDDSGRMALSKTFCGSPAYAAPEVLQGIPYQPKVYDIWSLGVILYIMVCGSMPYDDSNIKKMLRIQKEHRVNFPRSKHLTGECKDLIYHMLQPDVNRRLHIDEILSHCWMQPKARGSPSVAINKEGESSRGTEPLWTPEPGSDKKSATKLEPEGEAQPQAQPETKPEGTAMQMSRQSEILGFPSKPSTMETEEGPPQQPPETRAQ

ITK = target: T7, ITK (Homo sapiens, UniProt Q08881); experiment: KinomeScan; format: binding; settings: read-out: % Control
T7 construct: purchased DiscoveRx (Fremont, CA)

TAOK1 = target: T8, TAOK1 (Homo sapiens, UniProt Q7L7X3); experiment: KinomeScan; format: binding; settings: read-out: % Control
T8 construct: purchased DiscoveRx (Fremont, CA)
T8 sequence (Q7L7X3 whole entry): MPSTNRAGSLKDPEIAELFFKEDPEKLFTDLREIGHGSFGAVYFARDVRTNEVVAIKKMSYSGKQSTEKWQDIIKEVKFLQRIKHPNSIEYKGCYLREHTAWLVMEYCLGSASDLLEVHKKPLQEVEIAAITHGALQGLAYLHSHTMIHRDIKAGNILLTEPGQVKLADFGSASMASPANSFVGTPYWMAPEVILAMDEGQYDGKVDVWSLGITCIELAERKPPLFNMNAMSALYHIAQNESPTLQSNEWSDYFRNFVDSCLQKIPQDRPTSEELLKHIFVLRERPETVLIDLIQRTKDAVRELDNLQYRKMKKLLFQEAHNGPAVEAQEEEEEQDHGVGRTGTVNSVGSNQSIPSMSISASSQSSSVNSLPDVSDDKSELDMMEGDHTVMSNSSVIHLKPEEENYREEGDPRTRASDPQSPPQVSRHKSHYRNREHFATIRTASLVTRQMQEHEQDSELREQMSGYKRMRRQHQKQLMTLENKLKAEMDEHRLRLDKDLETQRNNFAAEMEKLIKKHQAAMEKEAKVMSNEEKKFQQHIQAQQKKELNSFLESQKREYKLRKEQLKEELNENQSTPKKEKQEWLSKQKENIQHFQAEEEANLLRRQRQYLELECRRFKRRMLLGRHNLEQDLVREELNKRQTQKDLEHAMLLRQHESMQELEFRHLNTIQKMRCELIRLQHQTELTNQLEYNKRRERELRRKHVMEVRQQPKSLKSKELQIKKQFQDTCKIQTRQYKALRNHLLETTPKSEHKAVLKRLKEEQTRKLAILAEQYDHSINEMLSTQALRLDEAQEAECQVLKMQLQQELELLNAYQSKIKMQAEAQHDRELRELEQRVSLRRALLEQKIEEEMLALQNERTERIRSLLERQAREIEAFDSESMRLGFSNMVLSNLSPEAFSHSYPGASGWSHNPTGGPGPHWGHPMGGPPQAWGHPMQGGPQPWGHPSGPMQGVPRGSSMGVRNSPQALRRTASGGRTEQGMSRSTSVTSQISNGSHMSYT

PAK1 = target: T9, PAK1 (Homo sapiens, UniProt Q13153); experiment: KinomeScan; format: binding; settings: read-out: % Control
T9 construct: purchased DiscoveRx
T9 sequence (Q13153 whole entry): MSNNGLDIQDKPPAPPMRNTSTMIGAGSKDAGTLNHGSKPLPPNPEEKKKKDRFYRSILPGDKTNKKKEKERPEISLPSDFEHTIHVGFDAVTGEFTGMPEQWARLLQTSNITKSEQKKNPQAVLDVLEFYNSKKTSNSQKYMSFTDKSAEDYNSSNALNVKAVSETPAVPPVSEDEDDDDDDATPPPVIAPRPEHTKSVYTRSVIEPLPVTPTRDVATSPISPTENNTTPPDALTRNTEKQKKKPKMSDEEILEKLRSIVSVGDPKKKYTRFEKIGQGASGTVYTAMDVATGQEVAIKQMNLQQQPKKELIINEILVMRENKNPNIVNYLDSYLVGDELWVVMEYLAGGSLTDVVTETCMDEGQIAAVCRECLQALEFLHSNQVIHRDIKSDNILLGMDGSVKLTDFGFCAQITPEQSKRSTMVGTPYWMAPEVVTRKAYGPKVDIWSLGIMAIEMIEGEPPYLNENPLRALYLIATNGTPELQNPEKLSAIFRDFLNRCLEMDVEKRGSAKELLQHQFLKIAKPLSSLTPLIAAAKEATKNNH

EPHA8 = target: T10, EPHA8 (Homo sapiens, UniProt P29322); experiment: KinomeScan; format: binding; settings: read-out: % Control
T10 construct: purchased DiscoveRx (Fremont, CA)
T10 sequence (P29322 28-1005): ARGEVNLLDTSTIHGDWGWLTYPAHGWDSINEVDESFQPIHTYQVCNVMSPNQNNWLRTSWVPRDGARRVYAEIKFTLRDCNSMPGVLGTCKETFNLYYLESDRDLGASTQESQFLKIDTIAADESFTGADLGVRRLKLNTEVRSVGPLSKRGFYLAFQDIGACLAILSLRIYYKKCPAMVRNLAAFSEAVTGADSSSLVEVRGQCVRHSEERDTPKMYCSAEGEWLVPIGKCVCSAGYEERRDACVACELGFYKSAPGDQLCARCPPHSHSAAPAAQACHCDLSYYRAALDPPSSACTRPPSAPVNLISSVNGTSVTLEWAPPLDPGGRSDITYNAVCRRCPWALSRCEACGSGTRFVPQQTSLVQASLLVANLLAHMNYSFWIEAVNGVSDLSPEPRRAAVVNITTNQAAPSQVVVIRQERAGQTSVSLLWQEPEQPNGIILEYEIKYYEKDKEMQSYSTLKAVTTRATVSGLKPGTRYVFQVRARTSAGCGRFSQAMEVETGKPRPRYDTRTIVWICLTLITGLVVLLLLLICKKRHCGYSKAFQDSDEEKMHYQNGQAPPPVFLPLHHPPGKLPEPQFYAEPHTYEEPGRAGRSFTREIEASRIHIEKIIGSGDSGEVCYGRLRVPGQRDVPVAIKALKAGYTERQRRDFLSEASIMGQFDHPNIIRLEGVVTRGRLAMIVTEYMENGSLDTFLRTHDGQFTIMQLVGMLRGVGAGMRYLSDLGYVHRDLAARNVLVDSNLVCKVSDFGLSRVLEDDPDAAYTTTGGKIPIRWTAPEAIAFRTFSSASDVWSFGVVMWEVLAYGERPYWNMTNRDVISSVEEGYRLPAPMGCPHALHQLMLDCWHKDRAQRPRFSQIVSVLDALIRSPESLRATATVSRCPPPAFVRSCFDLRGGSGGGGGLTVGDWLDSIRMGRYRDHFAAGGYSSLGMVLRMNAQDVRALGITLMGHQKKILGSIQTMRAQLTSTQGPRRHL

HIPK2 = target: T11, HIPK2 (Homo sapiens, UniProt Q9H2X6); experiment: KinomeScan; format: binding; settings: read-out: % Control
T11 construct: purchased DiscoveRx (Fremont, CA)

MCHR1 = target: T12, MCHR1 (Homo sapiens, UniProt Q99705); experiment: GPCR Profiler; format: cell-based; settings: 12.5 uM
T12 construct: host or cells: Chem-1 cells with promiscuous Gα15
T12 sequence (Q99705 whole entry, species assumed): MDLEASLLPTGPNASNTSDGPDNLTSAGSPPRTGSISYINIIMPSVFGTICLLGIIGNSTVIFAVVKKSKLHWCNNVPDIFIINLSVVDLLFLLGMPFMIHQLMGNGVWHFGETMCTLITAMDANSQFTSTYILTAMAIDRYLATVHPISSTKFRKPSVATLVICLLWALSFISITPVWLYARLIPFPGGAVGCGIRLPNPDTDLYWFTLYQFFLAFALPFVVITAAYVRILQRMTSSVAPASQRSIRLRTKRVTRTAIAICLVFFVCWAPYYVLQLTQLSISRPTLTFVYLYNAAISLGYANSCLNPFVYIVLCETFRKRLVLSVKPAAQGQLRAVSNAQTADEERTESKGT

EGFR(L858R, T790M) = target: T13, EGFR(L858R, T790M) (Homo sapiens, UniProt P00533, L858R/T790M); experiment: KinomeScan; format: binding; settings: read-out: % Control
T13 construct: purchased DiscoveRx (Fremont, CA), KinomeScan service

PDX 08-387 cells = experiment: Cell survival, OGM2 with TMZ; format: cell-based, human; settings: OGM2 and TMZ, cell killing
Procedure: GBM neurospheres and low passage PDX models were plated in 96-well plates at 10,000 cells per well in 50 μL of neural stem cell media. The next day, the cells were treated with OGM2 compounds at the indicated concentrations, in triplicates, by adding an equal volume of medium containing 2× the final concentration of compound. Following 72 hours incubation under standard cell culture conditions, relative cell number was assessed using Cell Titer-Glo Luminescent Cell Viability Assay (Promega™) following the manufacturer's instructions. Luminescence was determined using a Cytation 5 reader and Gen5 software package (BioTek™). For U87 and U138 cell lines, one thousand cells were plated per well in a standard 96-well plate and allowed to attach for 24 hours before exposure to concentrations of vehicle, OGM2, or TMZ. Cells were treated for 72 hours and then stained with DAPI. A 10× magnification lens on a LionheartFX (BioTek™) was used to image the wells, and images were stitched together with Gen5 software (BioTek™). Automated nuclei counting was also done using the Gen5 software. Results reported as percent response relative to DMSO control. […]
Where appropriate, ANOVA, or student's T-test were conducted in PRISM. […] For drug interaction and therapeutic interaction, the coefficient of drug interaction (CDI) was calculated as follows: CDI=AB/(A×B). […]

U87 = experiment: MitoTracker / TMRM staining; format: cell-based, human
Text: Lipid peroxidation associated with ferroptosis is known to disrupt mitochondrial membranes, resulting in smaller mitochondria.

T1 sequence (P41597 1-360 isoform P41597-2): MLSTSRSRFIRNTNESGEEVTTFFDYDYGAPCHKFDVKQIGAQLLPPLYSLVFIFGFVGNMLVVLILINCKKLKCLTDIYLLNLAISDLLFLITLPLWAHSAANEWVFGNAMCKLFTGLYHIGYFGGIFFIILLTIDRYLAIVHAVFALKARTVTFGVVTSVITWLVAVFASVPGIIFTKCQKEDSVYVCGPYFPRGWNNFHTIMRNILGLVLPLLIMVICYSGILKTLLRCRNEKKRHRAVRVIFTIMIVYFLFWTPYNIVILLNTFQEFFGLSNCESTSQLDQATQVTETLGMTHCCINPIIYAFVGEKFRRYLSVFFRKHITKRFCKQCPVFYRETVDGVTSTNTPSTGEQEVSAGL

`CCc1ccc2c(c1)C1(NN=C(c3cccc4ccccc34)S1)C(=O)N2` (stereo not drawn) [OGM1, 5-ethyl-5′-naphthalen-1-ylspiro[1H-indole-3,2′-3H-1,3,4-thiadiazole]-2-one] was tested, and the Antagonism (CCR2B; 10 uM) was 0.7, the Agonism (CCR2B; 12.5 uM) was 0.7 and the Antagonism (GLP-1; 10 uM) was 2.1. For the same compound, the Agonism (GLP-1; 12.5 uM) was −0.3, the remaining binding at 10 µM (FRK) was 100% and the Antagonism (S1P3; 10 uM) was −3.7. For the same compound, the Agonism (S1P3; 12.5 uM) was 0.2, the remaining binding at 10 µM (ZAK) was 100% and the remaining binding at 10 µM (TSSK1B) was 79%. For the same compound, the remaining binding at 10 µM (ITK) was 100%, the remaining binding at 10 µM (TAOK1) was 83% and the remaining binding at 10 µM (PAK1) was 70%. It also gave a remaining binding at 10 µM (EPHA8) of 100%, a remaining binding at 10 µM (HIPK2) of 100% and an Agonism (MCHR1) of −0.4. The remaining binding at 10 µM (EGFR(L858R, T790M)) was 89%.
For `CCc1ccc2c(c1)C1(NN=C(c3ccccc3)S1)C(=O)N2` (stereo not drawn) [OGM2], the “coefficient of drug interaction (CDI)” value (PDX 08-387 cells) was less than 0.7 and the “mitochondrial membrane potential (TMRM)” value (U87) was “decreased mitochondrial membrane potential”.
